In US11753408B2, “Compounds and method for blocking transmission of malarial parasite” (The United States of America, as represented by the …, priority 2016, dated 2023):

What was measured:
[1] = Solubility at pH 7.4; type: physicochemical
[2] = Microsomal stability (rat); type: in vitro ADME; settings: rat microsomes
[3] = target: mTOR (Homo sapiens, UniProt P42345); test: mTOR activity (no method described); type: biochemical
[4] = PAMPA permeability; type: in vitro ADME
[5] = system: Asexual parasites of P. falciparum strain 3D7; test: In vitro drug activity on asexual parasites (SYBR Green assay); type: cell-based, Plasmodium falciparum
Method in brief: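 SYBR Green I fluorescence (ex 490, em 520 nm) was read after freeze-thaw lysis and 30 min staining at room temperature. Before that, drug-treated cultures (0.5% parasitemia, 2% hematocrit, DMSO ≤0.5%) were incubated 72 h, in duplicate.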

Sol @ pH 7.4 [1] [ug/mL] | Microsomal Stability (rat) T1/2 [2] [min] | mTOR [3] [nM] | PAMPA Permeability [4] [×10⁻⁶ cm/s] | EC50 [5] [nM] | SMILES
6.3 | >30 | 3288 | 3.3 | 371 | O=C(c1ccc(-n2c(=O)ccc3cnc4ccc(-c5ccc(OC6CCNCC6)cc5)cc4c32)cc1)N1CCOCC1 [Compound 219]
9.4 | 12.6 | 4247 | 127 | 156 | O=C(NCCN1CCCC1)c1ccc(-n2c(=O)ccc3cnc4ccc(-c5ccc(Cl)cc5)cc4c32)cc1 [Compound 220]
<1 | 22.2 | 1504 | 133 | 45.5 | COc1cc(-c2ccc3ncc4ccc(=O)n(-c5ccc(C(=O)NC6CC6)cc5)c4c3c2)ccc1Cl [Compound 221]
7.1 | 27.2 | 820.6 | 758 | 22.8 | Cc1cc(C(=O)NC2CC2)ccc1-n1c(=O)ccc2cnc3ccc(-c4ccc(F)c(O)c4)cc3c21 [Compound 222]
<1 | 23.3 | 916.9 | 735 | 19.8 | Cc1cc(C(=O)NC2CC2)ccc1-n1c(=O)ccc2cnc3ccc(-c4ccc(Cl)c(O)c4)cc3c21 [Compound 225]
<1 | 18 | 850.5 | 364 | 22.7 | O=C(NC1COC1)c1ccc(-n2c(=O)ccc3cnc4ccc(-c5ccc(Cl)cc5)cc4c32)cc1 [Compound 231]
9.2 | >30 | 1065 | 7.6 | 53.4 | O=C(NC1CNC1)c1ccc(-n2c(=O)ccc3cnc4ccc(-c5ccc(Cl)cc5)cc4c32)cc1 [Compound 232]
>76 | >30 | 6306 | 155 | 162 | O=C(NC1CC1)c1ccc(-n2c(=O)ccc3cnc4ccc(-c5ccc(CN6CCCC6)cc5)cc4c32)cc1 [Compound 233]
<1 | 1.4 | 18920 | 874 | 2220 | Cc1nc2ccc(-c3ccc(Cl)cc3)cc2c2c1ccc(=O)n2-c1ccc(C(=O)N2CCOCC2)cc1 [Compound 234]
<1 | 3.4 | 100000 | 564 | 24400 | O=C(c1ccc(-n2c(=O)ccc3c(F)nc4ccc(-c5ccc(Cl)cc5)cc4c32)cc1)N1CCOCC1 [Compound 235]
>78 | >30 | 50000 | < 1 | 1200 | O=C(c1ccc(-n2c(=O)ccc3c[n+]([O-])c4ccc(-c5ccc(Cl)cc5)cc4c32)cc1)N(CCO)CCO [Compound 236]
>65 | >30 | 100000 | 3.3 | 39500 | O=C(O)c1ccc(-n2c(=O)ccc3c(O)nc4ccc(-c5ccc(Cl)cc5)cc4c32)cc1 [Compound 237]
<1 | >30 | 214.8 | 439 | 56.8 | Nc1cc(-c2ccc3ncc4ccc(=O)n(-c5ccc(C(=O)NC6CC6)cc5)c4c3c2)ccc1Cl [Compound 238]
<1 | >30 | 242.2 | 79.9 | 17.5 | NC(=O)c1ccc(-n2c(=O)ccc3cnc4ccc(-c5ccc(Cl)cc5)cc4c32)cc1 [Compound 239]
